The target in data set [1] is T1, SARS‐CoV PL^pro (Severe acute respiratory syndrome coronavirus, UniProt P0C6X7). Particulars: read-out: IC50 SARS‐CoV PL^pro; cited from earlier work.
For data set [2], the target named is T1, SARS‐CoV PL^pro. Description: biochemical. The class given is biochemical. Particulars: for inhibition at 100 µM: read-out: Inhibition SARS‐CoV PL^pro, class (Table 1).
In a further data set the target is SARS‐CoV‐2 PL^pro (Severe acute respiratory syndrome coronavirus 2, UniProt P0DTD1). Put plainly: biochemical. It counts as biochemical.
The nature of another data set: in vitro. The following applies: African green monkey.
Another data set relates to SARS‐CoV‐2. Description: microbe, parasite or virus in culture. The class given is cell-based. The following applies: for EC50: Severe acute respiratory syndrome coronavirus 2, Vero C1008, 24 h, read-out: EC50 inhibition of SARS‐CoV‐2 replication.
[3] abbreviates: read-out: Inhibition SARS‐CoV‐2 PL^pro, class (Table 1).
The mark [4] stands for this setting: read-out: Percentage inhibition SARS‐CoV‐2 PL^pro.

Where two headings read alike, the source gives them in different places.

As a reminder, the IC50 is the concentration that inhibits the measured activity by half. On to `C[C@H](c1cccc2ccccc12)N1CCC(C(=O)NCc2cccc(F)c2)CC1` [Compound 20], for which, at SARS‐CoV PL^pro [1], the IC50 was 0.15 µM.

Broadly, the EC50 is the concentration needed to bring the measured effect to its halfway point. Take `C[C@H](c1cccc2ccccc12)N1Cc2ccccc2C1.Cl` [Compound 14 h, 2‐[(1R)‐1‐Naphth‐1‐ylethyl]‐2,3‐dihydro‐1H‐isoindol hydrochloride]: the values for the IC50 against SARS‐CoV PL^pro [2] and on SARS‐CoV‐2 PL^pro were 2.9 ± 0.2 µM and 7.6 ± 0.2 µM, respectively. Moreover, the CC50 in “in vitro” amounted to 442 ± 1.37 µM. Besides, the “SI (selectivity index)” value in the data set on SARS‐CoV‐2 amounted to 56.3. For the same molecule, the EC50 with SARS‐CoV‐2 came out at 7.85 ± 1.5 µM.

`C[C@H](c1cccc2ccccc12)N1Cc2ccc(N)cc2C1` [Compound 14 k, 2‐[(1R)‐1‐Naphth‐1‐ylethyl]‐2,3‐dihydro‐1H‐isoindol‐5‐amine]: the IC50 at SARS‐CoV PL^pro [2] was 4.9 ± 0.3 µM; at SARS‐CoV‐2 PL^pro, 57 ± 1 µM. The same molecule registered a CC50 in the data set “in vitro” greater than 500 µM. In addition, in the data set with SARS‐CoV‐2 (SARS‐CoV‐2, Vero E6 cells), the “Activity in the viral replication assay, in words” value is “completely inactive”.

As usually defined, the inhibition is how much of the control response was suppressed. Broadly, the melting point is the temperature of the solid-liquid transition. `CC(C(=O)Nc1ccc(S(N)(=O)=O)cc1)c1cccc2ccccc12` (stereo not shown) [Compound 11 c, 2‐Naphth‐1‐yl‐N‐(4‐sulfamoylphenyl)propanamide] returned a melting point of 206 °C. In addition, the inhibition at 100 µM on SARS‐CoV PL^pro [2] was less than 50%. Further, on SARS‐CoV‐2 PL^pro (setting [3]), the inhibition at 100 µM is less than 50%.

Turning to `C[C@@H](NC(=O)c1ccccc1C#N)c1cccc2ccccc12` [Compound 2 e, (R)‐2‐Cyano‐N‐(1‐(naphth‐1‐yl)ethyl)benzamide], the melting point was 181 °C. This molecule also had an IC50 on SARS‐CoV PL^pro [2] of 18 ± 2 µM. Further, at SARS‐CoV‐2 PL^pro (setting [3]), the inhibition at 100 µM was less than 50%.

Take `C[C@@H](NC(=O)c1ccccc1Cl)c1cccc2ccccc12` [Compound 2 i, 2‐Chloro‐N‐[(1R)‐1‐naphth‐1‐ylethyl]benzamide]: the melting point turned out to be 133 °C. This molecule showed a 50% inhibitory concentration (IC50) on SARS‐CoV PL^pro [2] of 6.5 ± 0.8 µM. The molecule also showed an IC50 on SARS‐CoV‐2 PL^pro of 15 ± 2 µM. The same molecule returned a CC50 in “in vitro” of 376 ± 1.36 µM. Besides, in the data set with SARS‐CoV‐2, the “SI (selectivity index)” value is 212 and the EC50 worked out at 1.77 ± 1.6 µM.

`CCc1ccccc1C(=O)NC(C)c1ccc2ccccc2c1` (stereo not shown) [Compound 19]: the IC50 at SARS‐CoV PL^pro [1] is greater than 200 µM.

Take `CC(C(=O)Nc1ccccc1F)c1cccc2ccccc12` (stereo not shown) [Compound 11 b, N ‐(2‐Fluorphenyl)‐2‐naphth‐1‐ylpropanamide]: the melting point is 116 °C. For the same molecule, on SARS‐CoV PL^pro [2], the inhibition at 100 µM was less than 50%. The inhibition at 100 µM at SARS‐CoV‐2 PL^pro (setting [3]) is less than 50%.

`CNS(=O)(=O)c1ccc(C)c(C(=O)N[C@H](C)c2cccc3ccccc23)c1` [Compound 2 t, 2‐Methyl‐5‐(methylsulfamoyl)‐N‐[(1R)‐1‐naphth‐1‐ylethyl]benzamide]: the melting point was determined as 184 °C. Further, half-maximal inhibition against SARS‐CoV PL^pro [2] (IC50) required 4 ± 0.3 µM. Further, on SARS‐CoV‐2 PL^pro (setting [4]), the inhibition at 100 µM was 87%.

With `Cc1ccsc1C(=O)N[C@H](C)c1cccc2ccccc12` [Compound 2 n, 3‐Methyl‐N‐[(1R)‐1‐naphth‐1‐ylethyl]thiophene‐2‐carboxamide], the figures for the IC50 on SARS‐CoV PL^pro [2] and against SARS‐CoV‐2 PL^pro were 14 ± 1 µM and 42 ± 6 µM, respectively. In the data set “in vitro”, this molecule displayed a CC50 greater than 500 µM. The “SI (selectivity index)” value in the data set on SARS‐CoV‐2 is greater than 105. Further, in the data set on SARS‐CoV‐2, the EC50 is 4.74 ± 1.35 µM.

On to `C[C@@H](NC(=O)c1ccccc1F)c1cccc2ccccc12` [Compound 2 f, 2‐Fluor‐N‐[(1R)‐1‐naphth‐1‐ylethyl]benzamide], for which the melting point stood at 135 °C. This molecule had a half-inhibitory concentration (IC50) at SARS‐CoV PL^pro [2] of 9 ± 1 µM. The inhibition at 100 µM on SARS‐CoV‐2 PL^pro (setting [4]) was determined as 67%.

`Cc1ccccc1NC(=O)C(C)c1cccc2ccccc12` (stereo not shown) [Compound 11 a, N ‐(2‐Methylphenyl)‐2‐naphth‐1‐ylpropanamide] registered a melting point of 151 °C. Further, on SARS‐CoV PL^pro [2], the inhibition at 100 µM was less than 50%. Besides, the “Inhibition of SARS‐CoV‐2 PL^pro, in words” value on SARS‐CoV‐2 PL^pro is given as “not show inhibitory activity”. In addition, at SARS‐CoV‐2 PL^pro (setting [3]), the inhibition at 100 µM is less than 50%.

Molecule `Cc1cc(N)ccc1C(=O)N[C@H](C)c1cccc2ccccc12.Cl` [Compound 2 p, (R)‐4‐Amino‐2‐methyl‐N‐[1‐(naphth‐1‐yl)ethyl]benzamide hydrochloride] gave a melting point of 231 °C. The molecule further returned an IC50 on SARS‐CoV‐2 PL^pro of 7.5 ± 0.6 µM. Besides, in the data set “in vitro”, the CC50 was greater than 500 µM. Further, in the data set with SARS‐CoV‐2, the “SI (selectivity index)” value is on record as greater than 31.7 and the EC50 is 15.8 ± 1.59 µM.

`C[C@@H](NC(=O)c1ccccc1Br)c1cccc2ccccc12` [Compound 2 g, 2‐Bromo‐N‐[(1R)‐1‐naphth‐1‐ylethyl]benzamide] registered a melting point of 153 °C. For the same molecule, the midpoint of inhibition at SARS‐CoV PL^pro [2], the IC50, lay at 11 ± 2 µM. In addition, the inhibition at 100 µM at SARS‐CoV‐2 PL^pro (setting [4]) worked out at 73%.

These data come from PMC7894572 (Chemmedchem, 2020).
